From patent publication US20150105252A1, “SUBSTITUTED PYRAZOLES AS HERBICIDES” (E I DU PONT DE NEMOURS AND COMPANY, priority 2013, published 2015)

How the values were obtained:
[1] = system: wheat; assay: Test A postemergence; format: in vivo, Triticum aestivum; details: Postemergence
In short: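 Injury readout: eye-scored versus untreated controls, 0 to 100. Exposure period: ~10 days, greenhouse. Application: soil-directed spray over sown seed (pre) or spray on seedlings 2–10 cm tall with one or two leaves (post), compound carried in non-phytotoxic solvent including surfactant.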

[2] = system: barnyardgrass; assay: Test B flood; format: in vivo, Echinochloa crus-galli; details: 250 g ai/ha, visual rating on 0 to 100 scale (0 no effect, 100 complete control), 13 to 15 days
In short: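 Visual ratings (0 = no effect, 100 = complete control) versus untreated controls were taken 13–15 days after treatment of greenhouse plants. Treatment was added to paddy water held at 3 cm depth on 2-leaf-stage seedlings.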

[3] = system: crabgrass, large; assay: Test C preemergence; format: in vivo, Digitaria sanguinalis; details: preemergence; for Plant response rating, Crabgrass, Large: 125 g ai/ha, scale 0 to 100, 0 = no effect, 100 = complete control
In short: (§1)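 Pre- and postemergence greenhouse screen; vehicle was a non-phytotoxic solvent mix with surfactant. Preemergence: treatment applied right after sowing into loam and sand. Postemergence: treated at 1–4 leaves. Visual rating at 13–15 days, 100 = complete control.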

[4] = system: foxtail, giant; assay: Test C preemergence; format: in vivo, Setaria faberii; details: preemergence; for Plant response rating, Foxtail, Giant: 125 g ai/ha, scale 0 to 100, 0 = no effect, 100 = complete control
In short: as §1

[5] = system: lambsquarters; assay: Test C preemergence; format: in vivo, Chenopodium album; details: preemergence; for Plant response rating, Lambsquarters: 125 g ai/ha, scale 0 to 100, 0 = no effect, 100 = complete control
In short: as §1

[6] = system: morningglory; assay: Test C preemergence; format: in vivo, Ipomoea coccinea; details: preemergence; for Plant response rating, Morningglory: 125 g ai/ha, scale 0 to 100, 0 = no effect, 100 = complete control
In short: as §1

[7] = system: pigweed; assay: Test C preemergence; format: in vivo, Amaranthus retroflexus; details: preemergence; for Plant response rating, Pigweed: 125 g ai/ha, scale 0 to 100, 0 = no effect, 100 = complete control
In short: as §1

[8] = system: waterhemp; assay: Test C preemergence; format: in vivo, Amaranthus rudis; details: preemergence; for Plant response rating, Waterhemp: 125 g ai/ha, scale 0 to 100, 0 = no effect, 100 = complete control
In short: as §1

[9] = system: velvetleaf; assay: Test C preemergence; format: in vivo, Abutilon theophrasti; details: preemergence; for Plant response rating, Velvetleaf: 125 g ai/ha, scale 0 to 100, 0 = no effect, 100 = complete control
In short: as §1

[10] = system: morningglory; assay: Test C postemergence; format: in vivo, Ipomoea coccinea; details: for Plant response rating (scale of 0 to 100 where 0 is no effect and 100 is complete control), Morningglory: Postemergence, 31 g ai/ha, visually evaluated after 13 to 15 days; for Morningglory plant response rating / Plant response rating, Morningglory: postemergence; for Morningglory plant response rating: 62 g ai/ha, scale 0 to 100
In short: as §1

[11] = system: nutsedge, yellow; assay: Test C postemergence; format: in vivo, Cyperus esculentus; details: for Plant response rating (scale of 0 to 100 where 0 is no effect and 100 is complete control), Nutsedge, Yellow: Postemergence, 31 g ai/ha, visually evaluated after 13 to 15 days; for Nutsedge, Yellow plant response rating / Plant response rating, Nutsedge, Yellow: postemergence; for Nutsedge, Yellow plant response rating: 62 g ai/ha, scale 0 to 100
In short: as §1

[12] = system: oilseed rape; assay: Test C postemergence; format: in vivo, Brassica napus; details: postemergence; for Oilseed Rape plant response rating: 62 g ai/ha, scale 0 to 100
In short: as §1

[13] = system: waterhemp; assay: Test C postemergence; format: in vivo, Amaranthus rudis; details: postemergence, 250 g ai/ha; scale 0 to 100 (0 no effect, 100 complete control)
In short: as §1

[14] = 125 g ai/ha, 0 to 100 scale, 0 no effect, 100 complete control
[15] = 500 g ai/ha, 0 to 100 scale (0 no effect, 100 complete control)
[16] = 31 g ai/ha, visual rating, scale 0 to 100 (0 no effect, 100 complete control), 13 to 15 days
[17] = 62 g ai/ha, scale 0 to 100 (0 no effect, 100 complete control), 13 to 15 days
[18] = 250 g ai/ha, scale 0 to 100, 0 is no effect, 100 is complete control
[19] = 250 g ai/ha, scale 0 to 100 (0 no effect, 100 complete control)
[20] = 125 g ai/ha, scale 0 to 100, 0 no effect, 100 complete control

CCOc1cc(C(=O)NC(C)C)nn1Cc1ccnc(C(F)(F)F)c1 [Compound 188]
Wheat plant response rating [1, 14]: 80 | Wheat plant response rating [1, 15]: 90 | Plant response rating, Barnyardgrass [2]: 75 | Crabgrass, Large plant response rating [3, 16]: 100 | Crabgrass, Large plant response rating [3, 17]: 100 | Plant response rating, Crabgrass, Large ([3]; 13 to 15 days): 100 | Crabgrass, Large plant response rating [3, 18]: 100 | Foxtail, Giant plant response rating [4, 16]: 100 | Foxtail, Giant plant response rating [4, 17]: 100 | Plant response rating, Foxtail, Giant ([4]; 13 to 15 days): 100 | Foxtail, Giant plant response rating [4, 18]: 100 | Lambsquarters plant response rating [5, 16]: 100 | Lambsquarters plant response rating [5, 17]: 100 | Plant response rating, Lambsquarters ([5]; 13 to 15 days): 100 | Lambsquarters plant response rating [5, 18]: 100 | Morningglory plant response rating [6, 16]: 98 | Morningglory plant response rating [6, 17]: 98 | Plant response rating, Morningglory ([6]; 13 to 15 days): 98 | Morningglory plant response rating [6, 18]: 100 | Pigweed plant response rating [7, 16]: 100 | Pigweed plant response rating [7, 17]: 100 | Plant response rating, Pigweed ([7]; 13 to 15 days): 100 | Pigweed plant response rating [7, 18]: 100 | Waterhemp plant response rating [8, 16]: 100 | Waterhemp plant response rating [8, 17]: 100 | Plant response rating, Waterhemp ([8]; 13 to 15 days): 100 | Waterhemp plant response rating [8, 18]: 100 | Velvetleaf plant response rating [9, 16]: 100 | Velvetleaf plant response rating [9, 17]: 100 | Plant response rating, Velvetleaf ([9]; 13 to 15 days): 100 | Velvetleaf plant response rating [9, 18]: 100 | Plant response rating (scale of 0 to 100 where 0 is no effect and 100 is complete control), Morningglory [10]: 85 | Morningglory plant response rating [10]: 90 | Plant response rating, Morningglory [10, 19]: 98 | Plant response rating, Morningglory [10, 20]: 98 | Plant response rating (scale of 0 to 100 where 0 is no effect and 100 is complete control), Nutsedge, Yellow [11]: 5 | Nutsedge, Yellow plant response rating [11]: 35 | Plant response rating, Nutsedge, Yellow [11, 19]: 10 | Plant response rating, Nutsedge, Yellow [11, 20]: 5 | Oilseed Rape plant response rating [12]: 60 | Plant response rating, Oilseed Rape [12, 19]: 90 | Plant response rating, Oilseed Rape [12, 20]: 70 | Plant response rating, Waterhemp [13]: 95

CCOc1cc(C(=O)NC2CC2)nn1Cc1ccnc(C(F)(F)F)c1 [Compound 189]
Wheat plant response rating [1, 14]: 80 | Wheat plant response rating [1, 15]: 90 | Plant response rating, Barnyardgrass [2]: 60 | Crabgrass, Large plant response rating [3, 16]: 100 | Crabgrass, Large plant response rating [3, 17]: 100 | Plant response rating, Crabgrass, Large ([3]; 13 to 15 days): 100 | Crabgrass, Large plant response rating [3, 18]: 100 | Foxtail, Giant plant response rating [4, 16]: 100 | Foxtail, Giant plant response rating [4, 17]: 100 | Plant response rating, Foxtail, Giant ([4]; 13 to 15 days): 100 | Foxtail, Giant plant response rating [4, 18]: 100 | Lambsquarters plant response rating [5, 16]: 98 | Lambsquarters plant response rating [5, 17]: 100 | Plant response rating, Lambsquarters ([5]; 13 to 15 days): 100 | Lambsquarters plant response rating [5, 18]: 100 | Morningglory plant response rating [6, 16]: 95 | Morningglory plant response rating [6, 17]: 98 | Plant response rating, Morningglory ([6]; 13 to 15 days): 98 | Morningglory plant response rating [6, 18]: 100 | Pigweed plant response rating [7, 16]: 100 | Pigweed plant response rating [7, 17]: 100 | Plant response rating, Pigweed ([7]; 13 to 15 days): 100 | Pigweed plant response rating [7, 18]: 100 | Waterhemp plant response rating [8, 16]: 100 | Waterhemp plant response rating [8, 17]: 100 | Plant response rating, Waterhemp ([8]; 13 to 15 days): 100 | Waterhemp plant response rating [8, 18]: 100 | Velvetleaf plant response rating [9, 16]: 98 | Velvetleaf plant response rating [9, 17]: 100 | Plant response rating, Velvetleaf ([9]; 13 to 15 days): 100 | Velvetleaf plant response rating [9, 18]: 100 | Plant response rating (scale of 0 to 100 where 0 is no effect and 100 is complete control), Morningglory [10]: 75 | Morningglory plant response rating [10]: 80 | Plant response rating, Morningglory [10, 19]: 98 | Plant response rating, Morningglory [10, 20]: 95 | Plant response rating (scale of 0 to 100 where 0 is no effect and 100 is complete control), Nutsedge, Yellow [11]: 5 | Nutsedge, Yellow plant response rating [11]: 5 | Plant response rating, Nutsedge, Yellow [11, 19]: 20 | Plant response rating, Nutsedge, Yellow [11, 20]: 5 | Oilseed Rape plant response rating [12]: 60 | Plant response rating, Oilseed Rape [12, 19]: 90 | Plant response rating, Oilseed Rape [12, 20]: 65 | Plant response rating, Waterhemp [13]: 90
